The values below come from US9181187B2, “Therapeutic agent for urinary excretion disorder” (ONO PHARMACEUTICAL CO., LTD., priority 2007, dated 2015).

Assay [1] concerns the target mouse EP1 receptor (Mus musculus (Mouse), UniProt P35375). In words: Measurement of EP1 Antagonist Activity (inhibition of PGE2-induced increase in intracellular calcium). The format is cell-based. Particulars: cells expressing mouse EP1 receptor; increase in intracellular calcium induced by PGE2 (100 nM). As to the method: The cells expressing mouse EP1 receptor were seeded at 10^4 cells/well in 96-well plates and cultured for 2 days with 10% Fetal Bovine Serum (FBS)/alpha Modified Eagle Medium (αMEM) in the incubator (37° C., 5% CO2). The cells were washed with phosphate buffer, and load buffer (10% FBS/αMEM containing Fura2/AM (5 μM), indomethacin (20 μM) and probenecid (2.5 mM)) was then added to each well and cells were left standing for 1 hour. Load buffer of each well was discarded and assay buffer (Hank's Balanced Salt Solution (HBSS) containing indomethacin (2.5 mM), probenecid (2.5 mM), HEPES-NaOH (10 mM) and 0.1% (w/v) Bovine Serum Albumin (BSA)) was added to each well and plates were left at room temperature in a dark room for 1 hour. Afterwards, compounds of the present invention (10 μL) or PGE2 (10 μL) prepared with assay buffer was added to each well and intracellular calcium concentrations were measured using a Fluorescence Drug Screening System (FDSS-4000, Hamamatsu Photonics K.K.). Changes in ratio of fluorescent intensity at 500 nm in cells exposed to alternating 2 excitation wavelengths was monitored as changes in intracellular calcium concentrations.
IC50 values were calculated based on the response inhibition rate of increase in intracellular calcium concentrations induced by PGE2 (100 nM) and was used as an index of EP1 antagonistic activity.

For assay [2], the system named is male cynomolgus monkeys. Nature of the assay: Animal model of dysuria induced by intravesical infusion of ATP (singlecystometry). The format is in vivo, cynomolgus monkey. Particulars: ATP solution intravesical, compound A 0.1 mg/kg subcutaneous. As to the method: After administration of ketamine hydrochloride anesthesia (15 to 20 mg/kg), male cynomolgus monkeys (11 years, 3 male (symbol “∘” in the FIG. 1 and FIG. 2 represents individual one.)) were fixed onto a stereotaxic operating table. The top of the bladder catheter was connected to a pressure transducer via a three-way stopcock, and intravesical pressure was recorded using a distortion amplifier and a recorder. The other end of the three-way stopcock were connected to a syringe for intravesical infusion to which an infusion pump was connected and a extension tube which satisfied physiological saline to remove residual urine from bladder.
The physiological saline was infused into the bladder at an infusion rate of 1.5 to 7.0 mL/min, and immediately after completion of voiding, the intravesical infusion was terminated and residual urine was removed (hereinafter, the above procedures is assumed singlecystometry.) and the procedures were repeated. […] Urinary flow rate (voided volume per voiding time (mL/sec)) and residual urine rate (residual urine volume per voided volume (%)) were calculated for each of the singlecystometry before ATP perfusion, after ATP perfusion and after ATP perfusion conducted after administration of the compound A. The results are shown in FIG. 1 and FIG. 2.

SMILES strings stand for the structures. pIC50: −log10 of the molar value.

mouse EP1 receptor, sequence (P35375 whole entry): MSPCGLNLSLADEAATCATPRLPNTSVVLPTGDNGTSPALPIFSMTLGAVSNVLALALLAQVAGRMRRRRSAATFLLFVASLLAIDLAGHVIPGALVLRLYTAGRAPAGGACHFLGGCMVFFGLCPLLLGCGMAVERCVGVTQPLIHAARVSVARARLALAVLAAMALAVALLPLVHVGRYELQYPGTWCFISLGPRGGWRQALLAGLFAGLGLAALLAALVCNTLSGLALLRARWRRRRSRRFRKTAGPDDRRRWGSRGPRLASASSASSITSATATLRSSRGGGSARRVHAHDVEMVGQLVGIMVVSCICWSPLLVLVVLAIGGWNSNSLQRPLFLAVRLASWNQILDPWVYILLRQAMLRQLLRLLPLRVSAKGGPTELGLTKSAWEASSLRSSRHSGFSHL

With `Cc1cc(C(=O)O)ccc1COc1cc2c(cc1N(CC(C)C)S(=O)(=O)c1nccs1)CCC2` [Compound A, 3-methyl-4-[6-[N-isobutyl-N-(2-thiazolylsulfonyl)amino]indan-5-yloxymethyl]benzoic acid], the negative logarithm of the IC50 (pIC50) in assay [1] was 8.16. The “Urinary flow rate (voided volume per voiding time)” value in assay [2] (FIG. 1) was “recovered the urinary flow rate decreased by ATP”. In assay [2] (FIG. 2), the “Residual urine rate (residual urine volume per voided volume)” value is on record as “decreased the residual urine rate”.
In the case of `Cc1ccc(S(=O)(=O)N(CC(C)C)c2cc3c(cc2OCc2ccc(C=CC(=O)O)cc2)CCC3)o1` [Compound E, 4-[6-[N-isobutyl-N-(5-methyl-2-furylsulfonyl)amino]indan-5-yloxymethyl]cinnamic acid], in assay [1], the pIC50 was 7.68.
The same measure, in the same setting: the value for `Cc1csc(S(=O)(=O)N(CC(C)C)c2ccc(C(F)(F)F)cc2OCc2ccc(C=CC(=O)O)cc2)n1` [Compound G, 4-[2-[N-isobutyl-N-(4-methyl-2-thiazolylsulfonyl)amino]-5-trifluoromethylphenoxymethyl]cinnamic acid] was 7.60; that for `Cc1cc(OCc2ccc(C=CC(=O)O)cc2C)c(N(CC(C)C)S(=O)(=O)c2cccnc2)cc1C` [Compound I, 3-methyl-4-[2-[N-isobutyl-N-(3-pyridylsulfonyl)amino]-4,5-dimethylphenoxymethyl]cinnamic acid] was 8.04; that for `Cc1csc(S(=O)(=O)N(c2cc(C)c(Cl)cc2OCc2ccc(-c3nnn[nH]3)cc2)C(C)C)n1` [Compound J, N-[4-chloro-5-methyl-2-[4-(5-tetrazolyl)phenylmethyloxy]phenyl]-N-isopropyl-(4-methyl-2-thiazolyl)sulfonylamide] was 8.31.
Consider `Cc1cc(OCc2ccc(-c3nnn[nH]3)cc2Cl)c(N(C(C)C)S(=O)(=O)c2cccnc2)cc1C` [Compound K, N-[4,5-dimethyl-2-[2-chloro-4-(5-tetrazolyl)phenylmethyloxy]phenyl]-N-isopropyl-3-pyridylsulfonylamide], for which the pIC50 in assay [1] was 8.43.
The same measure, in the same setting: then `Cc1csc(S(=O)(=O)N(c2cc(C)c(C)cc2OCc2ccc(-c3noc(=O)[nH]3)cc2)C(C)C)n1` [Compound L, N-[4,5-dimethyl-2-[4-(5-oxo-1,2,4-oxadiazol-3-yl)phenylmethyloxy]phenyl]-N-isopropyl-(4-methyl-2-thiazolyl)sulfonylamide], with 8.15.
